Test results as given in the supplement of paper PMC10307832.

Key:
Assay in all cases: relative viability (nuclei count vs DMSO), 5 days (fraction); higher = more cells survive
[1] = compound: Cc1ccc(C(=O)Nc2cccc(C(F)(F)F)c2)cc1Nc1cncc(C(N)=O)c1 [ALW-II-49-7] + C[C@]1(O)C[C@@H](c2nc(-c3ccc4ccc(-c5ccccc5)nc4c3)c3c(N)nccn32)C1 [Linsitinib] (partner 1 µM)
How it was run: (§1)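 Lung cancer cell lines were pin-tool dosed in 1536-well plates on the day after seeding, with either a lone drug or a fixed anchor-drug dose plus five library-drug doses (not always all listed) in √10 steps. Nuclei were counted on 4× images after 5 days. Relative viability is the ratio of treated-well to vehicle-well nuclei counts, with each value a median of duplicate plates.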

[2] = compound: Cc1ccc(C(=O)Nc2cccc(C(F)(F)F)c2)cc1Nc1cncc(C(N)=O)c1 [ALW-II-49-7] + NC(=O)Nc1cc(-c2cccc(F)c2)sc1C(=O)N[C@H]1CCCNC1 [AZD7762] (partner 0.2 µM)
How it was run: as §1

[3] = compound: Cc1nc(Nc2ncc(C(=O)Nc3c(C)cccc3Cl)s2)cc(N2CCN(CCO)CC2)n1 [Dasatinib] + Cc1nc(NC(=O)N2CCC[C@H]2C(N)=O)sc1-c1ccnc(C(C)(C)C(F)(F)F)c1 [Alpelisib] (partner 2 µM)
How it was run: as §1

[4] = compound: C1CC1C(=O)NC2=NNC3=C2C=CC(=C3)C4=CC(=CC=C4)C(=O)NC5CC5 [XMD13-2] + NC(=O)Nc1cc(-c2cccc(F)c2)sc1C(=O)N[C@H]1CCCNC1 [AZD7762] (partner 0.2 µM)
How it was run: as §1

Cell Line | relative viability ([1]; first compound 0.08 µM) | relative viability ([1]; first compound 0.253 µM) | relative viability ([1]; first compound 2.53 µM) | relative viability ([1]; first compound 8 µM) | relative viability ([2]; first compound 0.08 µM) | relative viability ([2]; first compound 0.253 µM) | relative viability ([2]; first compound 0.8 µM) | relative viability ([2]; first compound 2.53 µM) | relative viability ([2]; first compound 8 µM) | relative viability ([3]; first compound 0.005 µM) | relative viability ([3]; first compound 0.01581 µM) | relative viability ([3]; first compound 0.05 µM) | relative viability ([3]; first compound 0.1581 µM) | relative viability ([3]; first compound 0.5 µM) | relative viability ([4]; first compound 0.05 µM) | relative viability ([4]; first compound 0.1581 µM) | relative viability ([4]; first compound 0.5 µM) | relative viability ([4]; first compound 1.581 µM) | relative viability ([4]; first compound 5 µM) | relative viability ([1]; first compound 0.8 µM)
NCI-H1437 | 0.935 | 1.04 | 0.942 | 0.754 | 1.02 | 1.15 | 1.01 | 0.99 | 0.873 | 1.03 | 0.893 | 1.03 | 0.735 | 0.513 | 1.24 | 1.14 | 1.18 | 1.09 | 1.17 | 
NCI-H1651 | 0.928 | 1.02 | 0.884 | 0.996 | 0.465 | 0.466 | 0.474 | 0.397 | 0.317 | 0.899 | 0.853 | 0.66 | 0.544 | 0.619 | 0.515 | 0.577 | 0.486 | 0.462 | 0.511 | 0.973
NCI-H1666 | 0.81 | 0.794 | 0.842 | 0.781 | 0.858 | 0.855 | 0.822 | 0.839 | 0.77 | 0.964 | 0.855 | 0.844 | 0.563 | 0.31 | 0.849 | 0.89 | 0.927 | 0.81 | 0.807 | 0.81
NCI-H1703 | 0.564 | 0.78 | 0.277 | 0.224 | 0.124 | 0.132 | 0.116 |  | 0.127 | 0.229 | 0.179 | 0.184 | 0.155 | 0.157 | 0.124 | 0.131 | 0.125 |  | 0.116 | 0.567
NCI-H1734 | 0.927 | 0.911 | 0.815 | 0.828 | 0.588 | 0.562 | 0.544 | 0.483 | 0.55 | 0.553 | 0.477 | 0.469 | 0.346 | 0.278 | 0.66 | 0.673 | 0.548 | 0.501 | 0.493 | 0.872
NCI-H1755 | 1.05 | 1.14 | 0.978 | 0.855 | 0.543 | 0.497 | 0.379 | 0.432 | 0.382 | 0.775 | 0.602 | 0.437 | 0.275 | 0.137 | 0.419 | 0.431 | 0.46 | 0.449 | 0.413 | 1.01
NCI-H1792 | 0.402 | 0.338 | 0.321 | 0.371 | 0.836 | 0.621 | 0.591 | 0.745 | 0.454 | 0.73 | 0.431 | 0.532 | 0.389 | 0.153 | 0.854 | 0.78 | 0.762 | 0.634 | 0.846 | 0.421
NCI-H1793 | 0.864 | 0.723 | 0.868 | 0.863 | 0.412 | 0.436 | 0.487 | 0.417 | 0.289 | 0.554 | 0.45 | 0.545 | 0.512 | 0.443 | 0.707 | 0.662 | 0.468 | 0.524 | 0.72 | 0.84
NCI-H1915 | 1.13 | 1.13 | 1 | 0.825 | 0.675 | 0.678 | 0.688 | 0.636 | 0.477 | 1.01 | 0.979 | 0.933 | 0.395 | 0.311 | 0.675 | 0.774 | 0.708 | 0.696 | 0.646 | 1.09
NCI-H1944 | 1.18 | 1.26 | 1.29 | 1.2 | 0.801 | 0.614 | 0.359 | 0.458 | 0.498 | 0.781 | 0.725 | 0.575 | 0.289 | 0.203 | 0.555 | 0.473 | 0.488 | 0.75 | 0.551 | 1.3
NCI-H1975 | 1.01 | 1 | 0.863 | 0.956 | 0.743 | 0.815 | 0.673 |  | 0.589 | 0.579 | 0.437 | 0.361 | 0.21 | 0.199 | 0.857 | 0.869 | 0.735 | 0.664 | 0.799 | 0.892
NCI-H1993 | 0.753 | 0.691 | 0.792 | 0.878 | 0.981 | 0.674 | 0.722 | 0.812 | 0.622 | 0.702 | 0.66 | 0.653 | 0.521 | 0.587 | 0.926 | 0.595 | 0.387 | 0.63 | 0.791 | 0.737
NCI-H2085 | 0.669 | 0.866 | 0.84 | 0.942 | 0.987 | 1.06 | 0.988 | 1.06 | 0.834 | 0.874 | 0.794 | 0.596 | 0.292 | 0.2 | 0.993 | 0.995 | 1.04 | 0.848 | 1.09 | 0.843
NCI-H2087 | 1.14 | 0.962 | 0.896 | 0.919 | 1.52 | 1.46 | 1.18 | 1.14 | 1.11 | 0.988 | 0.957 | 1.34 | 1.01 | 0.613 | 1.31 | 1.39 | 1.62 | 1.3 | 1.49 | 0.871
NCI-H2126 | 0.656 | 0.733 | 0.7 | 0.717 | 0.981 | 1.05 | 0.913 | 1 | 0.984 | 0.761 | 0.643 | 0.65 | 0.518 | 0.339 | 1.1 | 1.04 | 0.98 | 1.04 | 0.996 | 0.746
NCI-H2347 | 1 | 0.974 | 0.868 | 0.737 | 1.02 | 0.727 | 0.606 | 0.676 | 0.638 | 0.845 | 0.817 | 0.783 | 0.327 | 0.34 | 0.971 | 0.759 | 0.888 | 0.735 | 0.822 | 1.08
NCI-H2405 | 0.892 | 1.01 | 0.376 | 0.9 | 0.746 | 0.808 | 0.553 | 0.645 | 0.485 | 0.621 | 0.334 | 0.366 | 0.23 | 0.162 | 0.849 | 0.712 | 0.728 |  | 0.8 | 0.958
NCI-H3122 | 1.02 | 0.934 | 1.18 | 1.13 | 1.05 | 0.853 | 1.06 | 1.05 | 1.03 | 0.835 | 0.858 | 0.87 | 0.693 | 0.718 | 1.01 | 0.973 | 1.1 | 1 | 0.899 | 1.1
PC-3 [JPC-3] | 1.01 | 0.914 | 0.995 | 0.952 | 0.738 | 0.735 | 0.68 | 0.801 | 0.672 | 1.08 | 1.09 | 1.12 | 0.966 | 0.477 | 0.818 | 0.868 | 0.9 |  | 0.718 | 0.935
PC-14 | 0.933 | 0.821 | 0.979 | 0.94 | 0.445 | 0.318 | 0.447 |  | 0.236 | 0.916 | 0.85 | 0.734 | 0.546 | 0.185 | 0.392 | 0.337 | 0.464 | 0.329 | 0.446 | 0.933
RERF-LC-KJ | 0.884 | 0.898 | 0.905 | 0.888 | 1.15 | 0.995 | 0.827 | 0.975 | 0.956 | 0.823 | 0.496 | 0.665 | 0.614 | 0.432 | 1.07 | 0.874 | 1.22 | 0.922 | 0.956 | 0.873
